Literature values in patent publication US5206382A, “Indole derivatives, pharmaceutical compositions and methods of treating neurological and psychiatric disorders” (Fidia Georgetown Institute for the Neurosciences, priority 1991, dated 1993).

Experiments:
rats = details: dose-related; reduced by both PK-11195 and Flumazenil; cited from earlier work
MBR [1] = details: in words; cited from earlier work
MBR [2] = details: in words; cited from earlier work; remark: listed apart in the source
GABAA receptor = details: in words; cited from earlier work

CCCN(CCC)C(=O)Cc1c(-c2ccc(Cl)cc2)nc2ccc(Cl)cn12 [Alpidem]
conflict response (rats): anticonflict (anxiolytic) action
cholesterol influx into mitochondria and formation of pregnenolone (MBR [1]): facilitates cholesterol influx into mitochondria and the formation of pregnenolone
affinity for the MBR (MBR [2]): high affinity
binding to the GABAA receptor / BZD recognition sites on GABAA receptors (GABAA receptor): high affinity
